Measurements as given in patent US11208387B2, “Macrocyclic broad spectrum antibiotics” (Genentech, Inc., priority 2019, dated 2021).
≈ marks a conversion by molar mass, not a printed value. Where two headings read alike, the source gives them in different places.

Assays:
Assay in all cases: Serum MIC, broth micro-dilution
Format in all cases: cell-based
[1] = system: Escherichia coli strain ATCC 25922; conditions: Escherichia coli, ATCC25922, read-out: E. coli 25922 Serum MIC
Method in brief: (§1)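 CLSI broth microdilution in 50% cation-adjusted Mueller Hinton II broth plus 50% mouse serum. Inoculum at final OD600 0.0005. Two-fold serial dilutions (10 concentrations) starting at 64, 4, 0.5 or 0.13 μg/mL. Incubated 22 h at 35 °C.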

[2] = system: Pseudomonas aeruginosa PA01; conditions: Pseudomonas aeruginosa, PA01, read-out: P. aeruginosa 01 Serum MIC
Method in brief: as §1

[3] = system: Klebsiella pneumoniae ATCC 700603; conditions: Klebsiella pneumoniae, ATCC700603
Method in brief: as §1

[4] = system: Acinetobacter baumannii ATCC 17978; conditions: Acinetobacter baumannii, ATCC17978
Method in brief: as §1

[5] = 50% v/v mouse serum in Mueller Hinton II cation adjusted Broth, 35° C., 22 hours, Table 4
[6] = 50% v/v mouse serum in Mueller Hinton II cation adjusted Broth, 35° C., 22 hours, Table 4, read-out: K pneumoniae 700603 Serum MIC
[7] = 50% v/v mouse serum in Mueller Hinton II cation adjusted Broth, 35° C., 22 hours, Table 4, read-out: A. baumanii 17978 Serum MIC
[8] = 50% v/v mouse serum in Mueller Hinton II cation adjusted Broth, 35° C., 22 hours, Table 5, read-out: Acinetobacter baumanii 17978 Serum MIC
[9] = 50% v/v mouse serum, compounds of Table 1, Table 7

Row | Structure (SMILES) | MIC [1, 5] | MIC [2, 5] | MIC [3, 6] | MIC [4, 7] | MIC [4, 8] | MIC [1, 9] | MIC [2, 9] | MIC ([3]; 50% v/v mouse serum, compounds of Table 1, Table 7, read-out: K. pneumoniae 700603 Serum MIC) | MIC ([4]; 50% v/v mouse serum, compounds of Table 1, Table 7, read-out: A. baumanii 17978 Serum MIC)
1 | CNc1nc(-c2ccc(C(C)(C)C)cc2)nc(C)c1C(=O)N[C@@H](CNS(N)(=O)=O)C(=O)N(C)[C@@H]1C(=O)N[C@@H](C)C(=O)N[C@H](C(=O)O)Cc2ccc(OC[C@H](O)CN)c(c2)-c2cc1cc(OC[C@H](O)CN)c2O [Example 56, (8S,11S,14S)-3,17-bis[(2R)-3-amino-2-hydroxy-propoxy]-14-[[(2S)-2-[[2-(4-tert-butylphenyl)-4-methyl-6-(methyl-amino)pyrimidine-5-carbonyl]amino]-3-(sulfamoylamino)-propanoyl]-methyl-amino]-18-hydroxy-11-methyl-10,13-dioxo-9,12-diazatri-cyclo[13.3.1.12,6]icosa-1(18),2(20),3,5,15(19), 16-hexaene-8-carboxylic acid] | 0.25 µM (≈ 0.256 µg/mL) | 3 µM (≈ 3.07 µg/mL) | 0.5 µM (≈ 0.511 µg/mL) | 6 µM (≈ 6.13 µg/mL) | 6 µM (≈ 6.13 µg/mL) |  |  |  | 
2 | CCC(C)(C)c1ccc(-c2nc(C)c(C(=O)N[C@@H](CNS(N)(=O)=O)C(=O)N(C)[C@@H]3C(=O)N[C@@H](C)C(=O)N[C@H](C(=O)O)Cc4ccc(OC[C@H](O)CN)c(c4)-c4cc3cc(OC[C@H](O)CN)c4O)c(N)n2)cc1 [Example 45, (8S,11S,14S)-14-[[(2S)-2-[[4-amino-2-[4-(1,1-dimethyl-propyl)phenyl]-6-methyl-pyrimidine-5-carbonyl]amino]-3-(sulfamoylamino)-propanoyl]-methyl-amino]-3,17-bis[(2R)-3-amino-2-hydroxy-propoxy]-18-hydroxy-11-methyl-10,13-dioxo-9,12-diazatri-cyclo[13.3.1.12,6]icosa-1(18),2(20),3,5,15(19), 16-hexaene-8-carboxylic acid] | 0.5 µM (≈ 0.511 µg/mL) | 3 µM (≈ 3.07 µg/mL) | 0.5 µM (≈ 0.511 µg/mL) | 8 µM (≈ 8.18 µg/mL) | 8 µM (≈ 8.18 µg/mL) |  |  |  | 
3 | Cc1nc(-c2ccc(C(C)(C)C)cc2O)cc(CN)c1C(=O)N[C@@H](CNS(N)(=O)=O)C(=O)N(C)[C@@H]1C(=O)N[C@@H](C)C(=O)N[C@H](C(=O)O)Cc2ccc(OC[C@H](O)CN)c(c2)-c2cc1cc(OC[C@H](O)CN)c2O [Example 65, (8S,11S,14S)-3,17-bis[(2R)-3-amino-2-hydroxy-propoxy]-14-[[(2S)-2-[[4-(aminomethyl)-6-(4-tert-butyl-2-hydroxy-phenyl)-2-methyl-pyridine-3-carbonyl]-amino]-3-(sulfamoyl-amino)propanoyl]-methyl-amino]-18-hydroxy-11-methyl-10,13-dioxo-9,12-diazatricyclo-[13.3.1.12,6]icosa-1(19),2(20),3,5,15,17-hexaene-8-carboxylic acid] | 1 µM (≈ 1.04 µg/mL) | 16 µM (≈ 16.6 µg/mL) | 1 µM (≈ 1.04 µg/mL) | 32 µM (≈ 33.2 µg/mL) | 32 µM (≈ 33.2 µg/mL) |  |  |  | 
4 | CCC(C)(C)c1ccc(-c2nc(C)c(C(=O)N[C@@H](CNS(N)(=O)=O)C(=O)N(C)[C@@H]3C(=O)N[C@@H](C)C(=O)N[C@H](C(=O)O)Cc4ccc(OC[C@H](O)CN)c(c4)-c4cc3cc(OC[C@H](O)CN)c4O)c(N)n2)c(F)c1 [Example 33, (8S,11S,14S)-14-[[(2S)-2-[[4-amino-2-[4-(1,1-dimethyl-propyl)-2-fluoro-phenyl]-6-methyl-pyrimidine-5-carbonyl]amino]-3-(sulfamoylamino)-propanoyl]-methyl-amino]-3,17-bis[(2R)-3-amino-2-hydroxy-propoxy]-18-hydroxy-11-methyl-10,13-dioxo-9,12-diazatricyclo-[13.3.1.12,6]icosa-1(18),2(20),3,5,15(19), 16-hexaene-8-carboxylic acid] | 1 µM (≈ 1.04 µg/mL) | 8 µM (≈ 8.32 µg/mL) | 1 µM (≈ 1.04 µg/mL) | 48 µM (≈ 49.9 µg/mL) | 48 µM (≈ 49.9 µg/mL) |  |  |  | 
5 | C[C@@H]1NC(=O)[C@@H](N(C)C(=O)[C@H](CCN)NC(=O)c2c(N)nc(-c3ccc(C(C)(C)C)cc3)nc2Cl)c2cc(OC[C@H](O)CN)c(O)c(c2)-c2cc(ccc2OC[C@H](O)CN)C[C@@H](C(=O)O)NC1=O [Example 55, (8S,11S,14S)-18-hydroxy-11-methyl-14-[methyl-[(2S)-4-amino-2-[[4-amino-2-(4-tert-butylphenyl)-6-chloro-pyrimidine-5-carbonyl]amino]-butanoyl]amino]-10,13-dioxo-3,17-bis[(2R)-3-amino-2-hydroxy-propoxy]-9,12-diazatricyclo-[13.3.1.12,6]icosa-1(18),2(20),3,5,15(19), 16-hexaene-8-carboxylic acid] | 0.19 µM (≈ 0.183 µg/mL) | 6 µM (≈ 5.78 µg/mL) | 0.19 µM (≈ 0.183 µg/mL) | 6 µM (≈ 5.78 µg/mL) | 6 µM (≈ 5.78 µg/mL) |  |  |  | 
6 | Cc1nc(-c2ccc(OCCC(C)(C)C)nc2)nc(N)c1C(=O)N[C@@H](CNS(N)(=O)=O)C(=O)N(C)[C@@H]1C(=O)N[C@@H](C)C(=O)N[C@H](C(=O)O)Cc2ccc(OC[C@H](O)CN)c(c2)-c2cc1cc(OC[C@H](O)CN)c2O [Example 54, (8S,11S,14S)-14-[[(2S)-2-[[4-amino-2-[6-(3,3-dimethyl-butoxy)-3-pyridyl]-6-methyl-pyrimidine-5-carbonyl]amino]-3-(sulfamoylamino)-propanoyl]-methyl-amino]-3,17-bis[(2R)-3-amino-2-hydroxy-propoxy]-18-hydroxy-11-methyl-10,13-dioxo-9,12-diazatri-cyclo[13.3.1.12,6]icosa-1(18),2(20),3,5,15(19), 16-hexaene-8-carboxylic acid] | 0.38 µM (≈ 0.4 µg/mL) | 4 µM (≈ 4.21 µg/mL) | 0.5 µM (≈ 0.527 µg/mL) | 8 µM (≈ 8.43 µg/mL) | 8 µM (≈ 8.43 µg/mL) |  |  |  | 
7 | C[C@@H]1NC(=O)[C@@H](N(C)C(=O)[C@H](CNS(N)(=O)=O)NC(=O)c2c(N)cc(-c3ccc(C(C)(C)C)cc3O)nc2Cl)c2cc(OC[C@H](O)CN)c(O)c(c2)-c2cc(ccc2OC[C@H](O)CN)C[C@@H](C(=O)O)NC1=O [Example 61, (8S,11S,14S)-18-hydroxy-11-methyl-14-[methyl-[(2S)-2-[[4-amino-6-(4-tert-butyl-2-hydroxy-phenyl)-2-chloro-pyridine-3-carbonyl]-amino]-3-(sulfamoyl-amino)propanoyl]-amino]-10,13-dioxo-3,17-bis[(2R)-3-amino-2-hydroxy-propoxy]-9,12-diazatricyclo-[13.3.1.12,6]icosa-1(18),2(20),3,5,15(19), 16-hexaene-8-carboxylic acid] | 0.38 µM (≈ 0.397 µg/mL) | 3 µM (≈ 3.13 µg/mL) | 0.5 µM (≈ 0.522 µg/mL) | 16 µM (≈ 16.7 µg/mL) | 16 µM (≈ 16.7 µg/mL) |  |  |  | 
8 | CCCCCOc1ccc(-c2nc(C)c(C(=O)N[C@@H](CCN)C(=O)N(C)[C@@H]3C(=O)N[C@@H](C)C(=O)N[C@H](C(=O)O)Cc4ccc(O)c(c4)-c4cc3ccc4OCCN)c(C)n2)cc1 (racemic) [Example 648] |  |  |  |  |  | 0.6 µM (≈ 0.512 µg/mL) | > 128 µM | 1.3 µM (≈ 1.11 µg/mL) | > 96 µM
9 | Cc1nc(-c2ccc(C3(C)CC3)cc2)nc(N)c1C(=O)N[C@@H](CNS(N)(=O)=O)C(=O)N(C)[C@@H]1C(=O)N[C@@H](C)C(=O)N[C@H](C(=O)O)Cc2ccc(OC[C@H](O)CN)c(c2)-c2cc1cc(OC[C@H](O)CN)c2O [Example 6, (8S,11S,14S)-18-hydroxy-11-methyl-14-[methyl-[(2S)-2-[[4-amino-6-methyl-2-[4-(1-methylcyclo-propyl)phenyl]-pyrimidine-5-carbonyl]amino]-3-(sulfamoylamino)-propanoyl]amino]-10,13-dioxo-3,17-bis[(2R)-3-amino-2-hydroxy-propoxy]-9,12-diazatricyclo-[13.3.1.12,6]icosa-1(18),2(20),3,5,15(19), 16-hexaene-8-carboxylic acid] | 0.75 µM (≈ 0.755 µg/mL) | 16 µM (≈ 16.1 µg/mL) | 0.75 µM (≈ 0.755 µg/mL) | 16 µM (≈ 16.1 µg/mL) | 16 µM (≈ 16.1 µg/mL) |  |  |  | 
